Tests used:
[1] = system: patients with diabetic nephropathy; experiment: Double-blind, randomised, placebo-controlled study of 24-hour proteinuria on top of high-dose ARB
Description: The study was double-blind, randomised, and placebo-controlled. […] Patients were included if at the end of the 4-week treatment period with high-dose ARBs, their 24-hour proteinuria was >300 mg/24 h. They were randomised into 3 groups: 20 mg of compound A, 50 mg of compound A, or placebo once daily, on top of the high dose ARB. Treatment duration was 4 weeks. The primary variable was 24-hour proteinuria.
Out of the 23 randomised patients, 7 received compound A 20 mg, 8 received compound A 50 mg and 8 received placebo. The mean age (±SD) was similar for all 3 groups. The HbA1c level at entry was also similar for all 3 groups.

[2] = system: patients with type 2 diabetes and nephropathy; details: literature studies (N Engl J Med 2001); correlating with reduction in onset of end-stage renal disease, no change in mortality rates; cited from earlier work

Compound | decrease in 24-hour proteinuria ([1]; compound A 50 mg once daily, 4 weeks, on top of high-dose ARB, mean ± SD, 8 patients) | mean decrease in 24-hour proteinuria ([1]; the 2 groups treated with compound A (20 mg and 50 mg), summary statement, called clinically relevant) | effect on proteinuria [2]
COc1ccccc1Oc1c(NS(=O)(=O)c2ccc(C)cn2)nc(-c2ccncc2)nc1OC [compound A] | −1.3±1.3 g/24 h | around 1 g/24 h | 
CCCCC1=NC2(CCCC2)C(=O)N1Cc1ccc(-c2ccccc2-c2nnn[nH]2)cc1 [irbesartan] |  |  | decrease in proteinuria
CCCCc1nc(Cl)c(CO)n1Cc1ccc(-c2ccccc2-c2nn[nH]n2)cc1 [losartan] |  |  | decrease in proteinuria
